Source: publication PMC12193833, “Toxicity Assessment and Antifungal Potential of Copper(II) and Silver(I) Complexes with 1,10-Phenanthroline-5,6-dione Against Drug-Resistant Clinical Isolates of Cryptococcus gattii and Cryptococcus neoformans” (Journal of Fungi, 2025)
Like-named read-outs stand apart in the source and are kept apart here.

What was measured:
[1] = tested on: C. neoformans reference strains (ATCC 28957, H99, T1444); test: MIC of complexes against reference strains; assay type: cell-based, Cryptococcus neoformans
Description: (§1) To further support and strengthen the evidence of the anti-Cryptococcus activity of the Cu-phendione and Ag-phendione complexes, we additionally performed MIC/MFC assays using well-characterized standard reference strains: ATCC 28957, […], […] (all C. neoformans), and […]).

mice = tested on: mice; parameters: method as in doi:10.1039/c2tx00010e; details: cited from earlier work; for Deaths, behavioral, dietary or body weight changes: 45 mg/kg daily for five days plus seven days observation; for AST and ALT activities vs control: 45 mg/kg daily for five days
[2] = tested on: C. gattii clinical isolates; test: MIC/MFC of test compounds, microdilution; assay type: cell-based, Cryptococcus gattii; details: for MIC: read-out: MIC
Description: (§2) Six clinical isolates belonging to the Cryptococcus genus were obtained from patients who attended the Instituto Nacional de Infectologia Evandro Chagas (INI), Fundação Oswaldo Cruz (FIOCRUZ), and were kindly provided by Dr. Rodrigo Almeida-Paes (INI-FIOCRUZ). To comply with ethical standards and institutional agreements between UFRJ and FIOCRUZ, patient data were not disclosed. In this sense, the C. neoformans isolates were designated CFP00213 (213), CFP00223 (223), and CFP00350 (350), while the C. gattii isolates were labeled CFP00023 (23), CFP00025 (25), and CFP00027 (27). Before each experiment, an aliquot of the culture was transferred from Sabouraud dextrose agar (2% glucose, 1% peptone, and 0.5% yeast extract) to RPMI 1640 medium (Sigma-Aldrich, St. Louis, MO, USA), pH 7.2, buffered with 0.165 M MOPS (Sigma-Aldrich, St. Louis, MO, USA). RPMI medium induces the expression of capsular polysaccharides, the primary virulence factor of Cryptococcus cells. The cultures were incubated at 37 °C for 48 h to promote cell proliferation, stimulate metabolic activation, and enhance capsular development. Yeast cell counts were determined using a Neubauer chamber.
(§3) Following MIC determination, the MFC was assessed by inoculating 10 µL from wells showing no visible fungal growth onto Sabouraud dextrose agar. […] To further support and strengthen the evidence of the anti-Cryptococcus activity of the Cu-phendione and Ag-phendione complexes, we additionally performed MIC/MFC assays using well-characterized standard reference strains: ATCC 28957, H99, T1444 (all C. neoformans), and R265 (C. gattii).

[3] = tested on: hemocytes of G. mellonella larvae; assay type: in vivo, Galleria mellonella; details: 24 h
Procedure: The hemocyte density in the hemolymph of larvae inoculated with both complexes was assessed to evaluate potential immunological changes in G. mellonella. […] To analyze hemocyte density, a ventral caudal incision was made between the last prolegs of each larva using a surgical scalpel, and 10 μL of hemolymph was collected. The hemolymph was then diluted 1:100 in 990 μL of an anticoagulant buffer solution (98 mM NaOH, 186 mM NaCl, 17 mM EDTA, and 41 mM citric acid, pH 4.5). The number of hemocytes in each dilution was subsequently counted using a Neubauer chamber (Thermo Fisher Scientific, Waltham, MA USA).

[4] = tested on: C. neoformans clinical isolates; test: MIC/MFC of test compounds, microdilution; assay type: cell-based, Cryptococcus neoformans; details: for MIC: read-out: MIC
Description: as §2, §3

[5] = tested on: Galleria mellonella larvae; test: In vivo acute toxicity, single treatment; details: single inoculation; for Larval survival: 125–1000 µM, 10 µL/larva, 37 °C
Procedure: (§4) In this set of experiments, G. mellonella larvae weighing approximately 0.2–0.3 g and displaying clear, uniform coloration were used. The larvae were inoculated (10 µL/larva) using an insulin syringe (BD Ultra-Fine, Franklin Lakes, NJ, USA) at the last left proleg. […] We also assessed their coloration through visual analysis as an indicator of stress levels. Throughout the experiments, the larvae were maintained at 37 °C [19, 42]. Two distinct treatment protocols were designed to evaluate the effects of the test compounds on larval survivability, as detailed below.
For the acute toxicity analysis, the test compounds were administered to the larvae in a single inoculation at concentrations ranging from 1000 to 125 μM. Each group consisted of 10 larvae, while the control group received only sterile PBS with 4% DMSO. […] The SI was calculated using the following equation: SI = G. mellonella CC50/Cryptococcus MIC.

[6] = tested on: C. gattii reference strain R265; test: MIC of complexes against reference strain; assay type: cell-based, Cryptococcus gattii
Description: as §1

hamsters = tested on: hamsters; parameters: method as in doi:10.1016/j.ejmcr.2022.100093; details: 1 mg/kg five times per week for nine weeks; cited from earlier work
[7] = tested on: Galleria mellonella larvae; test: In vivo chronic toxicity, multiple treatment; details: for Alterations in stress indicators (melanization, cocoon formation) / Chronic toxicity (larval survival monitored over seven days): 62.5 µM daily for five consecutive days; for Larval survival: daily inoculation 62.5 µM for up to five days
Procedure: as §4
For the chronic toxicity analysis, larvae were inoculated daily for five consecutive days with the test complexes (Cu-phendione or Ag-phendione) at a high concentration of 62.5 μM. Each group consisted of 10 larvae, while the control group received only sterile PBS with 4% DMSO.

[8] = tested on: C. neoformans or C. gattii; test: Stability of antifungal activity (MIC repeated every six months over two years); assay type: cell-based, Cryptococcus neoformans and Cryptococcus gattii; details: same DMSO solution, room temperature, protected from light, MIC every six months for 730 days
Description: To evaluate the stability of the antifungal activity of the test complexes, the MIC assay was repeated every six months over a two-year period using the same Ag-phendione or Cu-phendione solution. The solutions were stored at room temperature and protected from light to maintain their chemical integrity.

Sheep erythrocytes = tested on: Sheep erythrocytes
Procedure: To evaluate the hemolytic activity of the test compounds, the microdilution method was performed in PBS using 96-well cell culture plates, as described by Evans et al.. PBS containing the test compounds (phendione, Cu-phendione, and Ag-phendione) at varying concentrations (1.9–62.5 µM) was added to the wells. Sheep erythrocytes (Cultilab, Rio de Janeiro, RJ, Brazil) were diluted in PBS to a final concentration of 2% (approximately 2 × 10^8 erythrocytes) and added to each well. The final volume of each well was 200 μL. A negative control (PBS and blood) and a positive control (PBS, blood, and 1% Triton X-100) were also included. The plates were incubated at 37 °C for 24 h, then centrifuged at 500× g for 10 min at 4 °C. Following centrifugation, 100 μL of the supernatant from each well was transferred to a new 96-well microplate, and absorbance was measured using a microplate reader ([…] SkyHigh; Thermo Scientific, Waltham, MA, USA) at 415 nm. […] The average absorbance of the positive control was set as 100% hemolysis, and the percentage hemolysis of the other groups was calculated accordingly. The selectivity index (SI) was determined using the following equation: SI = erythrocyte CC50/Cryptococcus MIC.

[9] = all C. gattii clinical isolates
[10] = all C. neoformans clinical isolates

Row | Structure (SMILES) | MIC ([1]; C. neoformans ATCC 28957) [µM] | MIC ([1]; C. neoformans H99) [µM] | MIC ([1]; C. neoformans T1444) [µM] | Deaths, behavioral, dietary or body weight changes (mice) | AST and ALT activities vs control (mice) | Acute toxicity: highest dose with 100% tolerance (mice) [mg/kg] | MFC ([2]; C. gattii isolate 23) [µM] | MIC ([2]; C. gattii isolate 23) [µM] | MFC ([2]; C. gattii isolate 25) [µM] | MIC ([2]; C. gattii isolate 25) [µM] | MFC ([2]; C. gattii isolate 27) [µM] | MIC ([2]; C. gattii isolate 27) [µM] | MFC [2, 9] [µM] | MIC [2, 9] [µM] | MFC ([4]; C. neoformans isolate 213) [µM] | MIC ([4]; C. neoformans isolate 213) [µM] | MFC ([4]; C. neoformans isolate 223) [µM] | MIC ([4]; C. neoformans isolate 223) [µM] | MFC ([4]; C. neoformans isolate 350) [µM] | MIC ([4]; C. neoformans isolate 350) [µM] | also measured
1 | O=C1C(=O)c2cccnc2-c2ncccc21.O=C1C(=O)c2cccnc2-c2ncccc21.[Ag+].[O-][Cl+3]([O-])([O-])[O-] [Ag-phendione, [Ag(phendione)2]ClO4] | 0.19 | 0.78 | 0.78 | no deaths or behavioral, dietary, or body weight changes | No significant differences | 150 | 12.5 | 1.56 | 12.5 | 1.56 | 12.5 | 1.56 | 12.5 | 1.56 | 25 | 1.56 | 25 | 1.56 | 25 | 1.56 | Hemocyte density vs PBS control ([3]; single inoculation, any concentration tested (15.6–1000 µM)): did not significantly affect hemocyte density; MFC [4, 10]: 25 µM; MIC [4, 10]: 1.56 µM; Changes in melanization or silk/cocoon production [5]: no visible changes in melanization or silk/cocoon production; Larval survival [5]: 100%; MIC [6]: 0.19 µM; Deaths, changes in behavior, diet or body weight (hamsters): no deaths or changes in behavior, diet, or body weight; Urea, creatinine, AST, ALT and alkaline phosphatase levels vs control (hamsters): no differences; Alterations in stress indicators (melanization, cocoon formation) [7]: no alterations; Chronic toxicity (larval survival monitored over seven days) [7]: non-toxic; Larval survival [7]: 100%; Stability of antifungal activity (MIC variation) [8]: No variation in MIC values
2 | O.O.O.O.O=C1C(=O)c2cccnc2-c2ncccc21.O=C1C(=O)c2cccnc2-c2ncccc21.O=C1C(=O)c2cccnc2-c2ncccc21.[Cu+2].[O-][Cl+3]([O-])([O-])[O-].[O-][Cl+3]([O-])([O-])[O-] [Cu-phendione, [Cu(phendione)3](ClO4)2·4H2O] | 1.56 | 0.78 | 0.78 | no deaths or behavioral, dietary, or body weight changes | No significant differences | 45 | 12.5 | 6.25 | 12.5 | 6.25 | 12.5 | 6.25 | 12.5 | 6.25 | 50 | 3.125 | 50 | 3.125 | 50 | 3.125 | CC50 (Sheep erythrocytes): > 62.5 µM; Hemocyte density vs PBS control ([3]; single inoculation 15.625 µM): significant increase in hemocyte density; Hemocyte density vs PBS control ([3]; single inoculation 31.25 µM): significant increase in hemocyte density; Hemocyte density vs PBS control ([3]; single inoculation, other tested concentrations): No notable changes in hemocyte levels; MFC [4, 10]: 50 µM; MIC [4, 10]: 3.125 µM; CC50 ([5]; assumed, read-out: CC50 (G. mellonella larvae)): > 1000 µM; Changes in melanization or silk/cocoon production [5]: no visible changes in melanization or silk/cocoon production; Larval survival [5]: 100%; MIC [6]: 0.19 µM; Deaths, changes in behavior, diet or body weight (hamsters): no deaths or changes in behavior, diet, or body weight; Urea, creatinine, AST, ALT and alkaline phosphatase levels vs control (hamsters): no differences; Alterations in stress indicators (melanization, cocoon formation) [7]: no alterations; Chronic toxicity (larval survival monitored over seven days) [7]: non-toxic; Larval survival [7]: 100%; Stability of antifungal activity (MIC variation) [8]: No variation in MIC values
